Measured values reported in US7163946B2 (Ligand Pharmaceuticals Incorporated, priority 2002, dated 2007).
Where two headings read alike, the source gives them in different places.

Legend:
hPR [1] = target: T1, hPR (Homo sapiens, UniProt P06401); assay: hPR cotransfection assay in CV-1 cells, agonist mode; type: cell-based; conditions: for Emax: CV-1, CV-1 cells, relative to maximal response of progesterone as 100%, read-out: hPR Agonist CV-1 Cells Eff. (%)
T1 sequence (P06401 1-933): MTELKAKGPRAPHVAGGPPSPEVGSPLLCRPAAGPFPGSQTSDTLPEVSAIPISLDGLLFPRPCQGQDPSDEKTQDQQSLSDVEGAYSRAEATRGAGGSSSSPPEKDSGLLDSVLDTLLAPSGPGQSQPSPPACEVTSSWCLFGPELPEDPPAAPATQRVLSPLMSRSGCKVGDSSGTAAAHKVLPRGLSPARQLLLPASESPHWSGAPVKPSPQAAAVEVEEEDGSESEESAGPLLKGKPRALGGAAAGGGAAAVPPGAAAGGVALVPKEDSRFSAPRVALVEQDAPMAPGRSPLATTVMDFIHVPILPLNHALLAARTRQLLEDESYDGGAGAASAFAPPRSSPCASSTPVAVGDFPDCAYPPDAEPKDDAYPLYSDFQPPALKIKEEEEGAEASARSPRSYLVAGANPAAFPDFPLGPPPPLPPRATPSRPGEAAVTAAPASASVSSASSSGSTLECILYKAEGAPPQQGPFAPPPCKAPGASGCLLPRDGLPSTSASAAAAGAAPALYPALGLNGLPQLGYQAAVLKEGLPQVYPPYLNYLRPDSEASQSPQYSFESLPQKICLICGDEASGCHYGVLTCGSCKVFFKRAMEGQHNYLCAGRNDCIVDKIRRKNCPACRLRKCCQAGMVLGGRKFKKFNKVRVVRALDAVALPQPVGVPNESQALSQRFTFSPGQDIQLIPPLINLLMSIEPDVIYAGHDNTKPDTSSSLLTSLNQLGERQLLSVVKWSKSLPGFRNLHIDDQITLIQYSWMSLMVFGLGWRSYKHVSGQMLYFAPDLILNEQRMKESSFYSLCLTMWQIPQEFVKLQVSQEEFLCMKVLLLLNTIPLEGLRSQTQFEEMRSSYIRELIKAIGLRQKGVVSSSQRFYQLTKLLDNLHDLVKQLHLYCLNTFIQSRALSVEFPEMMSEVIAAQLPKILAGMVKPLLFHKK

hPR [2] = target: T2, hPR (Homo sapiens, UniProt P06401); assay: T47D alkaline phosphatase assay, antagonist mode; type: cell-based; conditions: T47D human breast cancer cells; for Emax: read-out: hPR Antagonists T47D Cells Eff. (%); for IC50: read-out: hPR Antagonists T47D Cells IC50
T2 sequence (P06401 679-933 limits assumed): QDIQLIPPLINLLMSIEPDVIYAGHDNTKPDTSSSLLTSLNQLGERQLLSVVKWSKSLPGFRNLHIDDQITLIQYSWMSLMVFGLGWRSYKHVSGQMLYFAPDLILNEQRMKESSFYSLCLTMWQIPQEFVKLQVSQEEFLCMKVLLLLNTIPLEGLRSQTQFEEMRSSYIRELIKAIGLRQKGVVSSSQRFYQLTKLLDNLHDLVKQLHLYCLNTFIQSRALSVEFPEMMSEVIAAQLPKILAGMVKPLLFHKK

hPR-A = target: T3, hPR-A (Homo sapiens, UniProt P06401); assay: Receptor competitive binding assay; conditions: read-out: PR binding Ki
T3 sequence (P06401 1-769 isoform P06401-2): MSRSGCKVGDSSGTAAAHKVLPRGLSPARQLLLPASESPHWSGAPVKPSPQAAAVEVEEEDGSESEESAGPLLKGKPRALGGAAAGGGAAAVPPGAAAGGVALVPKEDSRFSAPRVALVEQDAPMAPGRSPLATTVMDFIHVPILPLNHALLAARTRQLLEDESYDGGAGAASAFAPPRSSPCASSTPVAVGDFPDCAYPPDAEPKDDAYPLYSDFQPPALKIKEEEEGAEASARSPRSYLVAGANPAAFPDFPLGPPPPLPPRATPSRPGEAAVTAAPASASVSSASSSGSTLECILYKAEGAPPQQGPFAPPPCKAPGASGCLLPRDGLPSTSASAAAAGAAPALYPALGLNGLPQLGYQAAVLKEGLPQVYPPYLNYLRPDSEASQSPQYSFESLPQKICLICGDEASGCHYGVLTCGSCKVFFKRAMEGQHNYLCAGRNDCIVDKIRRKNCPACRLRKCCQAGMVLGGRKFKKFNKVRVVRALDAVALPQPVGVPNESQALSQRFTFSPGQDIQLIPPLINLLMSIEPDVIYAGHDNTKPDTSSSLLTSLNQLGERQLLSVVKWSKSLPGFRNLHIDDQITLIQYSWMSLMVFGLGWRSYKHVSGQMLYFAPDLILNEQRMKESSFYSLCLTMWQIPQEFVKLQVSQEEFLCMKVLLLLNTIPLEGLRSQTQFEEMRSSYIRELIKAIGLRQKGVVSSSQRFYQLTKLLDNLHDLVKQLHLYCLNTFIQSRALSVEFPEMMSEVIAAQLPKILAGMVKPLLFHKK

[3] = target: T4, human estrogen receptor (hER) (Homo sapiens, UniProt P03372); assay: hER cotransfection assay (potency ratio to hPR); type: cell-based; conditions: receptor-selectivity potency ratio, cotransfection assays
T4 sequence (P03372 1-595): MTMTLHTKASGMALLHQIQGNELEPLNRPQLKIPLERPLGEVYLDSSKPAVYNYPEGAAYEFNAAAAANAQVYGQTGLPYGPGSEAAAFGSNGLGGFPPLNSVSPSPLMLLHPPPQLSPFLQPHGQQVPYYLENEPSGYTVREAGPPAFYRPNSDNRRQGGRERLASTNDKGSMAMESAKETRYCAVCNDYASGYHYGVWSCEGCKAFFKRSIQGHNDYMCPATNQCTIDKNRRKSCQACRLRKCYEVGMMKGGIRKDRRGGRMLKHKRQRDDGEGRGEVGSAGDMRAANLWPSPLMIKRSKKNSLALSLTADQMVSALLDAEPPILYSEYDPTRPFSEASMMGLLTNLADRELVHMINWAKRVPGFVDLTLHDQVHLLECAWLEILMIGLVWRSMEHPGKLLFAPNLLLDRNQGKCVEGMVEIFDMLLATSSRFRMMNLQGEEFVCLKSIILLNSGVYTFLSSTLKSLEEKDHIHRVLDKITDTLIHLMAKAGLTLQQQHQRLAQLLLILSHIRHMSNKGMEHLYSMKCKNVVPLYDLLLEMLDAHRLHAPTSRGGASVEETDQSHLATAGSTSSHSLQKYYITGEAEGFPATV

[4] = CV-1 cells, read-out: hPR Agonist CV-1 Cells EC50
[5] = Tables 3 and 4, values without footnote, read-out: hPR agonist potencies (EC50 in nM) in the cotransfection assay

Emax (hPR [1]) | EC50 (hPR [1]; [4]) | EC50 (hPR [1]; [5]) | Emax (hPR [2]) | IC50 (hPR [2]) | Ki (hPR-A) | hER EC50 or IC50/hPR EC50 [3] | SMILES
169% | 2.9 nM | 2.9 nM | 42% | 389 nM | 9.5 nM | >1000 | CC1=CC(C)(C)Nc2ccc3c(c21)/C(=C/c1cc(F)ccc1F)Oc1c(F)cc(F)cc1-3 [Compound 17, 7,9-difluoro-5(Z)-(2,5-difluorobenzylidene)-1,2-dihydro-2,2,4-trimethyl-5H-chromeno[3,4-f]quinoline]
142% | 1.3 nM | 1.3 nM | 58% | 55 nM | 3.9 nM | >1000 | COc1ccccc1/C=C1\Oc2c(F)cc(F)cc2-c2ccc3c(c21)C(C)=CC(C)(C)N3 [Compound 18, 7,9-difluoro-5(Z)-(2-methoxybenzylidene)-1,2-dihydro-2,2,4-trimethyl-5H-chromeno[3,4-f]quinoline]
212% | 1.4 nM | 1.4 nM | 35% | 360 nM | 8.5 nM | >1000 | CC1=CC(C)(C)Nc2ccc3c(c21)/C(=C/c1cc(F)ccc1C)Oc1c(F)cc(F)cc1-3 [Compound 19, 7,9-difluoro-5(Z)-(2-methyl-5-fluorobenzylidene)-1,2-dihydro-2,2,4-trimethyl-5H-chromeno[3,4-f]quinoline]
147% | 2.8 nM | 2.8 nM | 59% | 170 nM | 2.9 nM | >1000 | CC1=CC(C)(C)Nc2ccc3c(c21)/C(=C/c1ccncc1C)Oc1c(F)cc(F)cc1-3 [Compound 20, 7,9-difluoro-5(Z)-(3-methyl-4-picolylidene)-1,2-dihydro-2,2,4-trimethyl-5H-chromeno[3,4-f]quinoline]
159% | 0.6 nM | 0.6 nM | 46% | 610 nM | 9 nM | >1000 | COc1ccc(F)cc1/C=C1\Oc2c(F)cc(F)cc2-c2ccc3c(c21)C(C)=CC(C)(C)N3 [Compound 26, 7,9-difluoro-5(Z)-(2-methoxy-5-fluorobenzylidene)-1,2-dihydro-2,2,4-trimethyl-5H-chromeno[3,4-f]quinoline]
191% | 2.3 nM |  | 40% | 170 nM | 7 nM | >1000 | CC1=CC(C)(C)Nc2ccc3c(c21)/C(=C/Br)Oc1c(F)cc(F)cc1-3 [Compound 29, 7,9-difluoro-5(Z)-bromomethylidene-1,2-dihydro-2,2,4-trimethyl-5H-chromeno[3,4-f]quinoline]
186% | 5.3 nM |  | 44% | 840 nM | 4.5 nM | >1000 | CC1=CC(C)(C)Nc2ccc3c(c21)/C(=C/c1ccsc1)Oc1c(F)cc(F)cc1-3 [Compound 30, 7,9-difluoro-5(Z)-(3-thienylmethylidene)-1,2-dihydro-2,2,4-trimethyl-5H-chromeno[3,4-f]quinoline]
171% | 2.7 nM | 2.7 nM | 39% | 610 nM | 7.9 nM | >1000 | CC1=CC(C)(C)Nc2ccc3c(c21)/C(=C/c1cccs1)Oc1c(F)cc(F)cc1-3 [Compound 31, 7,9-difluoro-5(Z)-(2-thienylmethylidene)-1,2-dihydro-2,2,4-trimethyl-5H-chromeno[3,4-f]quinoline]
